Measurements reported in ChEMBL document CHEMBL1649268, “Comparative in vitro activity profile of oritavancin against recent gram-positive clinical isolates” (2009).

What was measured:
Streptococcus pneumoniae [1] = assay: Antimicrobial activity against Streptococcus pneumoniae clinical isolates by broth microdilution method; type: functional
Streptococcus pneumoniae [2] = assay: Antimicrobial activity against penicillin-susceptible Streptococcus pneumoniae clinical isolates by broth microdilution method; type: functional
Streptococcus pneumoniae [3] = assay: Antimicrobial activity against penicillin-intermediate Streptococcus pneumoniae clinical isolates by broth microdilution method; type: functional
Streptococcus pneumoniae [4] = assay: Antimicrobial activity against penicillin-resistant Streptococcus pneumoniae clinical isolates by broth microdilution method; type: functional
Streptococcus [5] = assay: Antimicrobial activity against Streptococcus Group F clinical isolates assessed as percent susceptible isolates by broth microdilution method; type: functional
[6] = Antimicrobial activity against erythromycin-susceptible Streptococcus Group G clinical isolates assessed as percent susceptible isolates by broth microdilution method; type: functional, Streptococcus sp. 'group G'
[7] = Antimicrobial activity against erythromycin-susceptible Streptococcus Group C clinical isolates assessed as percent susceptible isolates by broth microdilution method; type: functional, Streptococcus sp. 'group C'
[8] = Antimicrobial activity against Streptococcus Group C clinical isolates assessed as percent susceptible isolates by broth microdilution method; type: functional, Streptococcus sp. 'group C'
Streptococcus pyogenes [9] = assay: Antimicrobial activity against erythromycin-nonsusceptible Streptococcus pyogenes clinical isolates assessed as percent susceptible isolates by broth microdilution method; type: functional
Streptococcus pyogenes [10] = assay: Antimicrobial activity against erythromycin-susceptible Streptococcus pyogenes clinical isolates assessed as percent susceptible isolates by broth microdilution method; type: functional
Streptococcus pyogenes [11] = assay: Antimicrobial activity against Streptococcus pyogenes clinical isolates assessed as percent susceptible isolates by broth microdilution method; type: functional
Streptococcus agalactiae [12] = assay: Antimicrobial activity against erythromycin-nonsusceptible Streptococcus agalactiae clinical isolates assessed as percent susceptible isolates by broth microdilution method; type: functional
Streptococcus agalactiae [13] = assay: Antimicrobial activity against erythromycin-susceptible Streptococcus agalactiae clinical isolates assessed as percent susceptible isolates by broth microdilution method; type: functional
Streptococcus agalactiae [14] = assay: Antimicrobial activity against Streptococcus agalactiae clinical isolates assessed as percent susceptible isolates by broth microdilution method; type: functional
Enterococcus faecium [15] = assay: Antimicrobial activity against Enterococcus faecium expressing VanA gene clinical isolates assessed as percent susceptible isolates by broth microdilution method; type: functional
Enterococcus faecalis [16] = assay: Antimicrobial activity against Enterococcus faecalis expressing VanB gene clinical isolates assessed as percent susceptible isolates by broth microdilution method; type: functional
Enterococcus faecalis [17] = assay: Antimicrobial activity against Enterococcus faecalis expressing VanA gene clinical isolates assessed as percent susceptible isolates by broth microdilution method; type: functional
Enterococcus faecalis [18] = assay: Antimicrobial activity against vancomycin-susceptible Enterococcus faecalis clinical isolates assessed as percent susceptible isolates by broth microdilution method; type: functional
[19] = system: Staphylococcus haemolyticus; assay: Antimicrobial activity against oxacillin-susceptible Staphylococcus haemolyticus clinical isolates assessed as percent susceptible isolates by broth microdilution method; type: functional
[20] = system: Staphylococcus epidermidis; assay: Antimicrobial activity against Staphylococcus epidermidis clinical isolates assessed as percent susceptible isolates by broth microdilution method; type: functional
Streptococcus pneumoniae [21] = assay: Antimicrobial activity against Streptococcus pneumoniae clinical isolates assessed as percent susceptible isolates by broth microdilution method; type: functional
Streptococcus pneumoniae [22] = assay: Antimicrobial activity against penicillin-susceptible Streptococcus pneumoniae clinical isolates assessed as percent susceptible isolates by broth microdilution method; type: functional
Streptococcus pneumoniae [23] = assay: Antimicrobial activity against penicillin-intermediate Streptococcus pneumoniae clinical isolates assessed as percent susceptible isolates by broth microdilution method; type: functional
Streptococcus pneumoniae [24] = assay: Antimicrobial activity against penicillin-resistant Streptococcus pneumoniae clinical isolates assessed as percent susceptible isolates by broth microdilution method; type: functional
Streptococcus agalactiae [25] = assay: Antimicrobial activity against erythromycin-nonsusceptible Streptococcus agalactiae clinical isolates assessed as resistant isolates by broth microdilution method; type: functional
Streptococcus agalactiae [26] = assay: Antimicrobial activity against erythromycin-susceptible Streptococcus agalactiae clinical isolates assessed as resistant isolates by broth microdilution method; type: functional
Streptococcus agalactiae [27] = assay: Antimicrobial activity against Streptococcus agalactiae clinical isolates assessed as resistant isolates by broth microdilution method; type: functional
Enterococcus faecium [28] = assay: Antimicrobial activity against vancomycin-susceptible Enterococcus faecium clinical isolates assessed as resistant isolates by broth microdilution method; type: functional
Enterococcus faecium [29] = assay: Antimicrobial activity against Enterococcus faecium clinical isolates assessed as resistant isolates by broth microdilution method; type: functional
Enterococcus faecalis [30] = assay: Antimicrobial activity against Enterococcus faecalis expressing VanB gene clinical isolates assessed as resistant isolates by broth microdilution method; type: functional
[31] = system: Staphylococcus haemolyticus; assay: Antimicrobial activity against oxacillin-resistant Staphylococcus haemolyticus clinical isolates assessed as resistant isolates by broth microdilution method; type: functional
[32] = system: Staphylococcus haemolyticus; assay: Antimicrobial activity against oxacillin-susceptible Staphylococcus haemolyticus clinical isolates assessed as resistant isolates by broth microdilution method; type: functional
[33] = system: Staphylococcus haemolyticus; assay: Antimicrobial activity against Staphylococcus haemolyticus clinical isolates assessed as resistant isolates by broth microdilution method; type: functional
[34] = system: Staphylococcus epidermidis; assay: Antimicrobial activity against Staphylococcus epidermidis clinical isolates assessed as resistant isolates by broth microdilution method; type: functional
Streptococcus [35] = assay: Antimicrobial activity against erythromycin-nonsusceptible Streptococcus Group F clinical isolates by broth microdilution method; type: functional
Streptococcus [36] = assay: Antimicrobial activity against erythromycin-susceptible Streptococcus Group F clinical isolates by broth microdilution method; type: functional
Streptococcus [37] = assay: Antimicrobial activity against Streptococcus Group F clinical isolates by broth microdilution method; type: functional
[38] = Antimicrobial activity against erythromycin-nonsusceptible Streptococcus Group G clinical isolates by broth microdilution method; type: functional; conditions: Streptococcus sp. 'group G'
[39] = Antimicrobial activity against erythromycin-susceptible Streptococcus Group G clinical isolates by broth microdilution method; type: functional; conditions: Streptococcus sp. 'group G'
[40] = Antimicrobial activity against Streptococcus Group G clinical isolates by broth microdilution method; type: functional; conditions: Streptococcus sp. 'group G'
[41] = Antimicrobial activity against erythromycin-nonsusceptible Streptococcus Group C clinical isolates by broth microdilution method; type: functional; conditions: Streptococcus sp. 'group C'
[42] = Antimicrobial activity against erythromycin-susceptible Streptococcus Group C clinical isolates by broth microdilution method; type: functional; conditions: Streptococcus sp. 'group C'
[43] = Antimicrobial activity against Streptococcus Group C clinical isolates by broth microdilution method; type: functional; conditions: Streptococcus sp. 'group C'
Streptococcus pyogenes [44] = assay: Antimicrobial activity against erythromycin-nonsusceptible Streptococcus pyogenes clinical isolates by broth microdilution method; type: functional
Streptococcus pyogenes [45] = assay: Antimicrobial activity against erythromycin-susceptible Streptococcus pyogenes clinical isolates by broth microdilution method; type: functional
Streptococcus pyogenes [46] = assay: Antimicrobial activity against Streptococcus pyogenes clinical isolates by broth microdilution method; type: functional
Streptococcus agalactiae [47] = assay: Antimicrobial activity against erythromycin-nonsusceptible Streptococcus agalactiae clinical isolates by broth microdilution method; type: functional
Streptococcus agalactiae [48] = assay: Antimicrobial activity against erythromycin-susceptible Streptococcus agalactiae clinical isolates by broth microdilution method; type: functional
Streptococcus agalactiae [49] = assay: Antimicrobial activity against Streptococcus agalactiae clinical isolates by broth microdilution method; type: functional
Enterococcus faecalis [50] = assay: Antimicrobial activity against vancomycin-nonsusceptible Enterococcus faecalis clinical isolates by broth microdilution method; type: functional
Enterococcus faecalis [51] = assay: Antimicrobial activity against Enterococcus faecalis clinical isolates by broth microdilution method; type: functional
[52] = system: Staphylococcus haemolyticus; assay: Antimicrobial activity against oxacillin-resistant Staphylococcus haemolyticus clinical isolates by broth microdilution method; type: functional
[53] = system: Staphylococcus haemolyticus; assay: Antimicrobial activity against oxacillin-susceptible Staphylococcus haemolyticus clinical isolates by broth microdilution method; type: functional
Staphylococcus aureus = assay: Antimicrobial activity against Staphylococcus aureus clinical isolates by broth microdilution method; type: functional
[54] = Antimicrobial activity against erythromycin-nonsusceptible Streptococcus Group G clinical isolates assessed as resistant isolates by broth microdilution method; type: functional, Streptococcus sp. 'group G'
[55] = Antimicrobial activity against erythromycin-nonsusceptible Streptococcus Group C clinical isolates assessed as resistant isolates by broth microdilution method; type: functional, Streptococcus sp. 'group C'
Streptococcus pneumoniae [56] = assay: Antimicrobial activity against penicillin-intermediate Streptococcus pneumoniae clinical isolates assessed as resistant isolates by broth microdilution method; type: functional

CN[C@H](CC(C)C)C(=O)N[C@H]1C(=O)N[C@@H](CC(N)=O)C(=O)N[C@H]2C(=O)N[C@H]3C(=O)N[C@H](C(=O)N[C@H](C(=O)O)c4cc(O)cc(O)c4-c4cc3ccc4O)[C@H](O)c3ccc(c(Cl)c3)Oc3cc2cc(c3O[C@@H]2O[C@H](CO)[C@@H](O)[C@H](O)[C@H]2O[C@H]2C[C@](C)(N)[C@H](O)[C@H](C)O2)Oc2ccc(cc2Cl)[C@H]1O [VANCOMYCIN]
56.3%: Activity (Enterococcus faecium [29])
0%: Activity (Enterococcus faecium [15]) | Activity (Enterococcus faecalis [16]) | Activity (Enterococcus faecalis [17]) | Activity (Streptococcus agalactiae [25]) | Activity (Streptococcus agalactiae [26]) | Activity (Streptococcus agalactiae [27]) | Activity (Enterococcus faecium [28]) | Activity [31] | Activity [32] | Resistant isolates [33] | Percent of isolates resistant [34]
0.5 µg/mL: MIC90 (Streptococcus pneumoniae [4]) | MIC90 (Streptococcus [35]) | MIC90 (Streptococcus [36]) | MIC90 (Streptococcus [37]) | MIC90 [38] | MIC90 [39] | MIC90 [40] | MIC90 [41] | MIC90 [42] | MIC90 [43] | MIC90 (Streptococcus agalactiae [47]) | MIC90 (Streptococcus agalactiae [48]) | MIC90 (Streptococcus agalactiae [49])
2 µg/mL: MIC90 (Enterococcus faecalis [51]) | MIC90 [52]
0.25 µg/mL: MIC90 (Streptococcus pneumoniae [1]) | MIC90 (Streptococcus pneumoniae [2]) | MIC90 (Streptococcus pneumoniae [3]) | MIC90 (Streptococcus pyogenes [44]) | MIC90 (Streptococcus pyogenes [45]) | MIC90 (Streptococcus pyogenes [46])
100%: Activity (Streptococcus [5]) | Activity [6] | Activity [7] | Activity [8] | Activity (Streptococcus pyogenes [9]) | Activity (Streptococcus pyogenes [10]) | Activity (Streptococcus pyogenes [11]) | Activity (Streptococcus agalactiae [12]) | Activity (Streptococcus agalactiae [13]) | Activity (Streptococcus agalactiae [14]) | Activity (Enterococcus faecalis [18]) | Activity [19] | Activity [20] | Activity (Streptococcus pneumoniae [21]) | Activity (Streptococcus pneumoniae [22]) | Activity (Streptococcus pneumoniae [23]) | Activity (Streptococcus pneumoniae [24]) | Activity (Enterococcus faecalis [30])
> 256 µg/mL: MIC90 (Enterococcus faecalis [50])
1 µg/mL: MIC90 [53] | MIC90 (Staphylococcus aureus)

CCC[C@@H]1C[C@@H](C(=O)N[C@@H]([C@H]2O[C@H](SC)[C@H](O)[C@@H](O)[C@H]2O)[C@H](C)Cl)N(C)C1 [CLINDAMYCIN]
> 4 µg/mL: MIC90 [52] | MIC90 (Staphylococcus aureus)
> 0.03 µg/mL: MIC (Streptococcus pneumoniae [4])
> 1 µg/mL: MIC90 (Streptococcus pneumoniae [1]) | MIC90 (Streptococcus pneumoniae [3]) | MIC90 (Streptococcus [35]) | MIC90 [38] | MIC90 [41] | MIC90 (Streptococcus pyogenes [44]) | MIC90 (Streptococcus agalactiae [47]) | MIC90 (Streptococcus agalactiae [49])
45.3%: Activity (Streptococcus pneumoniae [24])
15.3%: Percent of isolates resistant (Streptococcus pneumoniae [56])
81.9%: Activity (Streptococcus agalactiae [14])
96%: Activity (Streptococcus pyogenes [11])
97.2%: Activity (Streptococcus pneumoniae [22])
96.4%: Activity (Streptococcus [5]) | Activity [8]
95.8%: Activity [19]
41%: Activity (Streptococcus agalactiae [12])
100%: Activity [6] | Activity [7] | Activity (Streptococcus pyogenes [10])
27.9%: Resistant isolates [33]
17.6%: Activity [54] | Activity [55] | Activity (Streptococcus agalactiae [27])
1%: Activity (Streptococcus agalactiae [26])
34.5%: Percent of isolates resistant [34]
84.7%: Activity (Streptococcus pneumoniae [23])
0.06 µg/mL: MIC90 (Streptococcus pneumoniae [2]) | MIC90 (Streptococcus [36]) | MIC90 (Streptococcus [37]) | MIC90 [39] | MIC90 [40] | MIC90 [42] | MIC90 [43] | MIC90 (Streptococcus pyogenes [45]) | MIC90 (Streptococcus pyogenes [46]) | MIC90 (Streptococcus agalactiae [48])
99%: Activity (Streptococcus agalactiae [13])
86.9%: Activity (Streptococcus pneumoniae [21])
71%: Activity (Streptococcus pyogenes [9])
0.12 µg/mL: MIC90 [53]
57.4%: Activity (Streptococcus agalactiae [25])
2.8%: Activity [32]
65%: Activity [20]
37.1%: Activity [31]
